Several values for one entry are separate records, joined by “and”; a condition that tells them apart may be missing. Equal entries are not always repeated.
Tested on: German cockroaches (Blatella Germanica)
Experiment: Cockroach repellency in tray with half-treated vinyl, compared with DEET and N-methyl-neodecanamide (Example 3)
Assay type: in vivo
Conditions: 20 mg/m^2 on vinyl; for Number of Cockroaches present, Treated Section / Number of Cockroaches present, Untreated Section / Number of Cockroaches, Dead: single replicates (n = 50); for Number of Cockroaches present, Treated Section, Total / Number of Cockroaches present, Untreated Section, Total / Number of Cockroaches, Dead, Total: total of 4 replicates (200); for Percentage Dead / Percentage Present, Treated Section / Percentage Present, Untreated Section: cockroaches
Experimental: The effectiveness of compound 2 (example 1) as an insect repellent was determined using German cockroaches exposed to a formica surface partially treated/partially un-treated, and was directly compared to the repellency of the well known insect repellents DEET (N,N-diethyl-meta-toluamide) and N-methyl-neodecanamide. The study was conducted in an air conditioned laboratory at a temperature of 22°±2° C. under a normal day/night cycle, using German cockroaches (Blatella Germanica) of mixed sex and age. The study was conducted over a 7 days period and the repellent effectiveness was assessed 1, 3, 5 and 7 days after cockroach introduction. Each tray used in the study consisted of a melamine square tray of sides 1.8m×1.8m and 20 cm high walls. The upper part of the wall was provided with electrical strip, which prevented cockroaches escaping. A square of vinyl 90 cm×180 cm was treated with the test compound at 20 mg/m^2. This was achieved by soaking a paper wipe (Rag on a Roll, ca. 20 cm×20 cm) in a solution of the test compound in ethanol, squeezing out the excess liquid and wiping over the surface to give the required coverage. This was checked by weighing the cloth after application. The surface was allowed to dry. The treated vinyl square was placed in one half of the tray. A similar untreated square was placed in the other half of the tray. This square was treated with ethanol alone. Two sheets of formica (30 cm×30 cm) were placed at one corner of each tray, one on the treated surface and one on the untreated surface. This acted as a cockroach harbourage. The formica sheet to be used in the treated section was treated at the same rate as the treated formica. The formica was placed on two 1 cm high bottle tops to allow cockroaches access under the formica. 50 German cockroaches were added (15 adults and 35 nymphs) to the middle of the tray. No food and water was supplied for these cockroaches. At 1, 2, 3 and 7 days after cockroach introduction the number of cockroaches under each harbourage was counted. After each count the harbourage position was change to avoid the possibility of habituation to one location, the harbourages were replaced and new cockroaches were added to replace any dead cockroaches. The above was repeated 3 times to provide a total of 4 replicates.

[1] = 1 day after cockroach introduction
[2] = 2 days after cockroach introduction
[3] = 3 days after cockroach introduction
[4] = 7 days after cockroach introduction

For `CCNC(=O)C1CC(C)CCC1C(C)C` (stereo not drawn) [Compound 2, N-ethyl-p-menthane-3-carboxamide], the “cockroach repellency (in words)” value (over 7 days) was “excellent repellency”, the “Number of Cockroaches present, Treated Section” value [1] was 0 (3×) and 3 and the “Number of Cockroaches present, Untreated Section” value [1] was 50 (2×) and 49 and 47. For the same molecule, the “Number of Cockroaches, Dead” value [1] was 0 (3×) and 1, the “Number of Cockroaches present, Treated Section, Total” value [1] was 3 and the “Number of Cockroaches present, Untreated Section, Total” value (shortened to “Number … Untreated Section, Total”) [1] was 196. The “Number of Cockroaches, Dead, Total” value [1] was 1, the “Number of Cockroaches present, Treated Section” value [2] was 0 (3×) and 1 and the “Number of Cockroaches present, Untreated Section” value [2] was 50 (2×) and 49 (2×). The “Number of Cockroaches, Dead” value [2] was 0 (3×) and 1, the “Number of Cockroaches present, Treated Section, Total” value [2] was 1 and the “Number … Untreated Section, Total” value [2] was 198. The “Number of Cockroaches, Dead, Total” value [2] was 1, the “Number of Cockroaches present, Treated Section” value [3] was 6 and 3 and 0 (2×) and the “Number of Cockroaches present, Untreated Section” value [3] was 44 and 47 and 50 and 49. For the same molecule, the “Number of Cockroaches, Dead” value [3] was 0 (3×) and 1, the “Number of Cockroaches present, Treated Section, Total” value [3] was 9 and the “Number … Untreated Section, Total” value [3] was 190. The “Number of Cockroaches, Dead, Total” value [3] was 1, the “Number of Cockroaches present, Treated Section” value [4] was 7 and 19 and 3 and 11 and the “Number of Cockroaches present, Untreated Section” value [4] was 43 and 30 and 47 and 38. For the same molecule, the “Number of Cockroaches, Dead” value [4] was 0 (2×) and 1 (2×), the “Number of Cockroaches present, Treated Section, Total” value [4] was 40 and the “Number … Untreated Section, Total” value [4] was 158. The “Number of Cockroaches, Dead, Total” value [4] was 2, the “Percentage Dead” value (1 day after treatment) was 0.5% and the “Percentage Present, Treated Section” value (1 day after treatment) was 1.5%. The “Percentage Present, Untreated Section” value (1 day after treatment) was 98.0%, the “Percentage Dead” value (2 days after treatment) was 0.5% and the “Percentage Present, Treated Section” value (2 days after treatment) was 0.5%. For the same molecule, the “Percentage Present, Untreated Section” value (2 days after treatment) was 99.0%, the “Percentage Dead” value (3 days after treatment) was 0.5% and the “Percentage Present, Untreated Section” value (3 days after treatment) was 95.0%. The “Percentage Dead” value (7 days after treatment) was 1.0%, the “Percentage Present, Treated Section” value (7 days after treatment) was 20% and the “Percentage Present, Untreated Section” value (7 days after treatment) was 79.0%.

Source: US20040028714A1, “Composition having insect repellent characteristics” (priority 2000, published 2004)
